The text below walks through data of ChEMBL document CHEMBL1159088, “Design, synthesis and biological evaluation of simplified analogues of the RNA polymerase inhibitor etnangien” (Bioorg Med Chem Lett, 2010).

In brackets after ≈: the same amount, converted by molar mass.

The subject of one series is Escherichia coli. As to the kind of experiment: Antibacterial activity against Escherichia coli. It is filed as functional.
A further series deals with Mycolicibacterium phlei. Put plainly: Antibacterial activity against Mycobacterium phlei. It is filed as functional.
The test system of a further series is Micrococcus luteus. Put plainly: Antibacterial activity against Micrococcus luteus. In kind it is functional.
The subject of a further series is Saccharomyces cerevisiae. As to the kind of experiment: Antibacterial activity against Saccharomyces cerevisiae. It is filed as functional.
For series [1], the system named is Corynebacterium glutamicum. Put plainly: Antibacterial activity against Corynebacterium glutamicum. In kind it is functional.
The test system of a further series is Staphylococcus aureus. As to the kind of experiment: Antibacterial activity against Staphylococcus aureus. It is filed as functional.
The nature of series [2]: Chemical stability at pH >10. It is filed as physicochemical.
Series [3] can be described thus: Chemical stability at pH >3. In kind it is physicochemical.
A short description of series [4]: Chemical stability after 48 hrs. In kind it is physicochemical. The settings on record: read-out: Stability.
Series [5] is described as follows: Chemical stability at pH 7. It is filed as physicochemical. The settings on record: buffer.

One may read the MIC as the least concentration at which growth counts as inhibited. Regarding `COc1ccc(COC[C@@H](C)[C@@H](O)C[C@H]2CCC[C@H](OC)C/C=C\C=C\C[C@H](C)[C@@H](O)[C@H](C)[C@@H](O)[C@H](C)[C@H](O)CC(=O)O2)cc1`, the MIC in the series with Escherichia coli was greater than 20 µg/mL; against Mycolicibacterium phlei it was greater than 20 µg/mL; in the series with Micrococcus luteus it was greater than 20 µg/mL; with Saccharomyces cerevisiae it was greater than 20 µg/mL; in series [1], 20 µg/mL (≈ 31.5 µM); against Staphylococcus aureus it was greater than 20 µg/mL.
As to `CO[C@@H]1C/C=C\C=C\C[C@H](C)[C@H]2OC(C)(C)O[C@H]([C@H]2C)[C@H](C)[C@H](O)CC(=O)O[C@H]([C@H](C)[C@H](O)/C=C(C)/C=C/CO)C[C@H](O)CCC1`, the MIC is greater than 20 µg/mL with Escherichia coli; 20 µg/mL (≈ 30.7 µM) against Mycolicibacterium phlei; greater than 20 µg/mL against Micrococcus luteus; greater than 20 µg/mL against Saccharomyces cerevisiae; 10 µg/mL (≈ 15.4 µM) in [1]; greater than 20 µg/mL against Staphylococcus aureus.
As for `COC(=O)CC/C=C(\C)[C@@H](O)C/C=C/C=C/C=C/C=C/C=C/C(C)=C/[C@@H](O)[C@@H](C)[C@@H]1C[C@H](O)CCC[C@H](OC)C/C=C\C=C\C[C@H](C)[C@@H](O)[C@H](C)[C@@H](O)[C@H](C)[C@H](O)CC(=O)O1` [ETNANGIEN METHYL ESTER], the Stability result is on record as “Unstable” in series [2], “Unstable” in series [3] and “Stable” in series [5]. Also, the MIC in the series with Escherichia coli was greater than 20 µg/mL; in the series on Micrococcus luteus it was 0.39 µg/mL (≈ 0.456 µM); against Saccharomyces cerevisiae, greater than 40 µg/mL; in series [1], 0.24 µg/mL (≈ 0.281 µM); against Staphylococcus aureus it was 2.5 µg/mL (≈ 2.92 µM). The remaining at 48 h in [4] was less than 5%.
On to `CO[C@@H]1C/C=C\C=C\C[C@H](C)[C@@H](O)[C@H](C)[C@@H](O)[C@H](C)[C@H](O)CC(=O)O[C@H]([C@H](C)[C@H](O)/C=C(C)/C=C/C=C/C=C/C=C/C=C/C[C@H](O)/C(C)=C/CCC(=O)O)C[C@H](O)CCC1` [ETNANGIEN], for which the Stability result in series [2] was “Unstable”; in [3], “Unstable”; in series [5], “Stable”. Also, the MIC in the series with Escherichia coli is greater than 80 µg/mL; with Mycolicibacterium phlei it was 0.12 µg/mL (≈ 0.143 µM); with Micrococcus luteus it was 0.06 µg/mL (≈ 0.0713 µM); against Saccharomyces cerevisiae it was greater than 80 µg/mL; in series [1] it was 0.03 µg/mL (≈ 0.0357 µM); against Staphylococcus aureus, 1 µg/mL (≈ 1.19 µM).
In the case of `COc1ccc(COC[C@@H](C)[C@@H]2C[C@H](O)CCC[C@H](OC)C/C=C\C=C\C[C@H](C)[C@@H](O)[C@H](C)[C@@H](O)[C@H](C)[C@H](O)CC(=O)O2)cc1`, the MIC was greater than 20 µg/mL in the series on Escherichia coli; 20 µg/mL (≈ 31.5 µM) in the series on Mycolicibacterium phlei; greater than 20 µg/mL against Micrococcus luteus; greater than 20 µg/mL against Saccharomyces cerevisiae; 10 µg/mL (≈ 15.8 µM) in series [1]; greater than 20 µg/mL in the series with Staphylococcus aureus.
